Each structure is given as a SMILES string. Where only a bound is given, the exact number is not on record here.

In this test the target is FABP4 (Homo sapiens, UniProt P15090). As to the kind of experiment: TdF (Temperature Dependence Fluorescence) assay, thermal shift, FABP4. The class given is binding. In outline: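 Binding measured as ΔTm versus protein alone; binding constants derived by nonlinear fitting with ΔHL set to −7 kcal/mol and ΔCpL to zero.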
FABP4, sequence (P15090 whole entry, species assumed): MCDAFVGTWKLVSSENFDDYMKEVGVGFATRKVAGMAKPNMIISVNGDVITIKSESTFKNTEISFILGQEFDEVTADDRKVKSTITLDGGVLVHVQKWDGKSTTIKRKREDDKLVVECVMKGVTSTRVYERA

On to `N#Cc1c(Cl)cccc1OCc1cc(=O)n2nc(-c3ccccc3)nc2[nH]1` [1-24], for which the “FABP4 TdF Kd” value is on record as “B (0.5 ≦ B < 0.001 μM)”.

On to `COCC1(CNC(=O)c2ccccc2OCc2cc(=O)n3nc(-c4ccccc4)nc3[nH]2)CC1` [47-64], for which the “FABP4 TdF Kd” value was “B (0.5 ≦ B < 0.001 μM)”.

For `O=C(NCC1CCC1)C1(OCc2cc(=O)n3nc(-c4ccccc4)nc3[nH]2)CCCCC1` [48-20], the “FABP4 TdF Kd” value was “B (0.5 ≦ B < 0.001 μM)”.

Turning to `Cc1cccc(OCc2cc(=O)n3nc(-c4ccccc4)nc3[nH]2)c1C` [1-26], the Kd is above 500 nM.

As for `O=c1cc(COC2CCNCC2)[nH]c2nc(-c3ccccc3)nn12` [1-42], the Kd was above 500 nM.

Turning to `O=c1cc(CN2CCn3c(nnc3C3CC3)C2)[nH]c2nc(-c3ccccc3)nn12` [1-101], the equilibrium dissociation constant (Kd) was above 500 nM.

As to `O=c1cc(CNc2ccc(F)c(F)c2)[nH]c2nc(C(F)(F)F)nn12` [5-5], the Kd was above 500 nM.

For the molecule `CN1CCc2c(cccc2OCc2cc(=O)n3nc(-c4ccccc4)nc3[nH]2)C1` [1-98], the Kd is above 500 nM.

With `COCC1(CNC(=O)c2ccccc2OCc2[nH]c3nc(-c4ccccc4)nn3c(=O)c2Cl)CC1` [24-17], the “FABP4 TdF Kd” value is reported as “B (0.5 ≦ B < 0.001 μM)”.

On to `O=c1nc(SCc2cccc(Cl)c2Cl)[nH]c2nc(-c3ccccc3)nn12` [51-4], for which the Kd is above 500 nM.

`Cn1cc(Br)c(NCc2cc(=O)n3nc(-c4ccccc4)nc3[nH]2)n1` [1-146]: the Kd is above 500 nM.

As to `O=C(N1CCOCC1)C1(OCc2cc(=O)n3nc(-c4ccccc4)nc3[nH]2)CCCCC1` [48-19], the Kd is above 500 nM.

Take `O=c1cc(CSc2cccc(Cl)c2C2CC2)[nH]c2nc(-c3ccccc3)nn12` [52-4]: the Kd is at most 1 nM.

In the case of `Cc1ccc2ccccc2c1OCc1cc(=O)n2nc(-c3ccccc3)nc2[nH]1` [1-27], the “FABP4 TdF Kd” value is “B (0.5 ≦ B < 0.001 μM)”.

For `O=C(NC1(CO)CCOCC1)c1c(Cl)cccc1OCc1cc(=O)n2nc(-c3ccccc3)nc2[nH]1` [47-21, 2-chloro-N-(4-(hydroxymethyl)tetrahydro-2H-pyran-4-yl)-6-((7-oxo-2-phenyl-4,7-dihydro-[1,2,4]triazolo[1,5-a]pyrimidin-5-yl)methoxy)benzamide], the “FABP4 TdF Kd” value is given as “B (0.5 ≦ B < 0.001 μM)”.

Take `O=c1cc(COc2cccc3c2CCCC3)[nH]c2nc(-c3ccccc3)nn12` [1-10]: the “FABP4 TdF Kd” value was “B (0.5 ≦ B < 0.001 μM)”.

Turning to `CC(C)c1ccc(NCc2cc(=O)n3nc(-c4ccccc4)nc3[nH]2)cc1` [6-1], the equilibrium dissociation constant (Kd) is above 500 nM.

Take `O=c1cc(COc2c(Cl)ccc(Cl)c2Cl)[nH]c2nc(-c3ccccc3)nn12` [1-31]: the “FABP4 TdF Kd” value is reported as “B (0.5 ≦ B < 0.001 μM)”.

Consider `O=C(NCC1(CO)CCOCC1)c1c(Cl)cccc1OCc1cc(=O)n2nc(-c3ccccc3)nc2[nH]1` [47-26, 2-chloro-N-((4-(hydroxymethyl)tetrahydro-2H-pyran-4-yl)methyl)-6-((7-oxo-2-phenyl-4,7-dihydro-[1,2,4]triazolo[1,5-a]pyrimidin-5-yl)methoxy)benzamide], for which the “FABP4 TdF Kd” value is “B (0.5 ≦ B < 0.001 μM)”.

In the case of `O=C(NCC1(c2ccccc2Cl)CC1)c1ccccc1OCc1cc(=O)n2nc(-c3ccccc3)nc2[nH]1` [47-60], the “FABP4 TdF Kd” value is reported as “B (0.5 ≦ B < 0.001 μM)”.

For `O=C(CC1CC1)Nc1c(Cl)cccc1OCc1cc(=O)n2nc(-c3ccccc3)nc2[nH]1` [49-6], the “FABP4 TdF Kd” value was “B (0.5 ≦ B < 0.001 μM)”.

`CCc1ccc(OCc2cc(=O)n3nc(-c4cccnc4)nc3[nH]2)cc1` [8-5]: the Kd is above 500 nM.

As for `CCc1ccc(OCc2cc(=O)n3nc(C(=O)O)nc3[nH]2)cc1` [9-1], the Kd was above 500 nM.

As for `O=C(NC1(CO)CCC1)c1c(Cl)cccc1OCc1cc(=O)n2nc(-c3ccccc3)nc2[nH]1` [47-35], the “FABP4 TdF Kd” value is given as “B (0.5 ≦ B < 0.001 μM)”.

Regarding `COc1ccc(Cl)cc1NCc1cc(=O)n2nc(C(F)(F)F)nc2[nH]1` [5-6], the Kd is above 500 nM.

Take `Cc1c(Cl)cccc1OCc1[nH]c2nc(-c3ccccc3)nn2c(=O)c1Br` [2-1]: the “FABP4 TdF Kd” value was “B (0.5 ≦ B < 0.001 μM)”.

Take `Cc1c(Cl)cccc1NC(=O)c1cc(=O)n2nc(-c3ccccc3)nc2[nH]1` [11-3]: the Kd was above 500 nM.

As for `CNC(=O)C1(OCc2cc(=O)n3nc(-c4ccccc4)nc3[nH]2)CCCCC1` [48-23], the Kd is above 500 nM.

As for `CCc1cccc(C)c1OCc1cc(=O)n2nc(-c3ccccc3)nc2[nH]1` [1-33], the “FABP4 TdF Kd” value is given as “B (0.5 ≦ B < 0.001 μM)”.

Turning to `COc1cc(OC)cc(OCc2cc(=O)n3nc(-c4ccccc4)nc3[nH]2)c1` [1-32], the “FABP4 TdF Kd” value is “B (0.5 ≦ B < 0.001 μM)”.

Take `O=C(NCC1CC1)c1ccccc1OCc1[nH]c2nc(-c3ccccc3)nn2c(=O)c1Cl` [24-15]: the “FABP4 TdF Kd” value was “B (0.5 ≦ B < 0.001 μM)”.

For `Cc1ccsc1-c1nc2[nH]c(COc3cccc(Cl)c3C)cc(=O)n2n1` [1-113], the Kd is above 500 nM.

For `COCCNC(=O)C1(OCc2cc(=O)n3nc(-c4ccccc4)nc3[nH]2)CCCCC1` [48-24], the “FABP4 TdF Kd” value was “B (0.5 ≦ B < 0.001 μM)”.

With `O=c1cc(CN2CCC(c3cccc(Cl)c3)C2)[nH]c2nc(-c3ccccc3)nn12` (stereo not shown) [1-91], the equilibrium dissociation constant (Kd) was above 500 nM.

As for `CCC1(OCc2cc(=O)n3nc(-c4ccccc4)nc3[nH]2)CCCCC1` [1-96], the Kd was above 500 nM.

As for `Cc1c(Br)cccc1OCc1cc(=O)n2nc(-c3ccccc3)nc2[nH]1` [1-84], the “FABP4 TdF Kd” value is listed as “B (0.5 ≦ B < 0.001 μM)”.

`CNCC1(COC(=O)C2(OCc3cc(=O)n4nc(-c5ccccc5)nc4[nH]3)CCCCC2)CCC1` [48-47]: the Kd was above 500 nM.

As to `CCc1ccc(OCc2cc(=O)n3nc(COC(C)=O)nc3[nH]2)cc1` [8-9], the Kd was above 500 nM.

For the molecule `CCc1ccc(OCc2cc(=O)n3nc(-c4ccccc4)nc3[nH]2)c(C(C)(C)C)c1` [1-68], the “FABP4 TdF Kd” value is given as “B (0.5 ≦ B < 0.001 μM)”.

As to `CCCCc1cn(Cc2cc(=O)n3nc(-c4ccccc4)nc3[nH]2)c2cccc(Cl)c12` [1-143], the “FABP4 TdF Kd” value is given as “B (0.5 ≦ B < 0.001 μM)”.

With `O=c1c(Cl)c(COCC2(c3cccc(C(F)(F)F)c3)CC2)[nH]c2nc(-c3ccccc3)nn12` [24-7], the “FABP4 TdF Kd” value was “B (0.5 ≦ B < 0.001 μM)”.

`Cc1cc(C(C)(C)C)ccc1OCc1cc(=O)n2nc(-c3ccccc3)nc2[nH]1` [1-74]: the Kd is above 500 nM.

In the case of `Cc1c(Cl)cccc1OCc1cc(=O)n2nc(-c3ccccn3)cc2[nH]1` [8-14], the Kd is above 500 nM.

Take `CN(CC1CC1)C(=O)c1c(Cl)cccc1OCc1cc(=O)n2nc(-c3ccccc3)nc2[nH]1` [47-46]: the dissociation constant (Kd) is above 500 nM.

With `CCN(C(=O)C1(OCc2cc(=O)n3nc(-c4ccccc4)nc3[nH]2)CCCCC1)C1CCCCC1` [48-38], the “FABP4 TdF Kd” value is on record as “B (0.5 ≦ B < 0.001 μM)”.

As to `O=c1cc(CSc2cccc(Cl)c2C2CCC2)[nH]c2nc(-c3ccccc3)nn12` [52-5], the Kd is at most 1 nM.

With `O=c1cc(COc2ccccn2)[nH]c2nc(-c3ccccc3)nn12` [1-47], the Kd was above 500 nM.

Regarding `O=c1cc(COc2ccc(OC(F)(F)F)cc2)[nH]c2nc(-c3ccccc3)nn12` [1-65], the equilibrium dissociation constant (Kd) is above 500 nM.

Take `Cc1c(Cl)cccc1OCc1cc(=O)n2nc(-c3cnccn3)nc2[nH]1` [25-5]: the Kd was above 500 nM.

As for `CCc1ccc(OCc2cc(=O)n3nc(-c4ccccc4)nc3[nH]2)cc1` [1-3], the “FABP4 TdF Kd” value is “B (0.5 ≦ B < 0.001 μM)”.

Regarding `CN(CC1(CO)CCC1)C(=O)C1(OCc2cc(=O)n3nc(-c4ccccc4)nc3[nH]2)CCCCC1` [48-46], the “FABP4 TdF Kd” value is reported as “B (0.5 ≦ B < 0.001 μM)”.

For `Cn1nc(C2CC2)cc1NC(=O)c1c(Cl)cccc1OCc1cc(=O)n2nc(-c3ccccc3)nc2[nH]1` [47-11], the “FABP4 TdF Kd” value is recorded as “B (0.5 ≦ B < 0.001 μM)”.

For the molecule `O=c1cc(COc2cccc(C(F)(F)F)c2)[nH]c2nc(-c3ccccc3)nn12` [1-59], the Kd is above 500 nM.

With `CN(CCc1cccc(Cl)c1)C(=O)C1(OCc2cc(=O)n3nc(-c4ccccc4)nc3[nH]2)CCCCC1` [48-29], the “FABP4 TdF Kd” value is “B (0.5 ≦ B < 0.001 μM)”.

Take `CC1(C)CCC(OCc2cc(=O)n3nc(-c4ccccc4)nc3[nH]2)CC1` [1-147]: the “FABP4 TdF Kd” value is given as “B (0.5 ≦ B < 0.001 μM)”.

As for `CN(CC1(c2ccccc2Cl)CC1)C(=O)C1(OCc2cc(=O)n3nc(-c4ccccc4)nc3[nH]2)CCCCC1` [48-42], the “FABP4 TdF Kd” value was “B (0.5 ≦ B < 0.001 μM)”.

Consider `Cc1c(Cl)cccc1OCc1[nH]c2nc(-c3ccccc3)nn2c(=O)c1Cl` [3-1], for which the “FABP4 TdF Kd” value is on record as “B (0.5 ≦ B < 0.001 μM)”.

Turning to `O=C(NC1CCCCC1)c1ccccc1OCc1[nH]c2nc(-c3ccccc3)nn2c(=O)c1Cl` [24-13], the “FABP4 TdF Kd” value is on record as “B (0.5 ≦ B < 0.001 μM)”.

For the molecule `O=c1cc(CO[C@H]2C[C@H]3CC[C@@H]2C3)[nH]c2nc(-c3ccccc3)nn12` [1-108], the “FABP4 TdF Kd” value is listed as “B (0.5 ≦ B < 0.001 μM)”.

Take `COc1ccc2c(c1)CN(Cc1cc(=O)n3nc(-c4ccccc4)nc3[nH]1)C2=O` [1-29]: the Kd was above 500 nM.

Turning to `O=C(NC1(CO)CCCC1)C1(OCc2cc(=O)n3nc(-c4ccccc4)nc3[nH]2)CCCCC1` [48-59], the “FABP4 TdF Kd” value is recorded as “B (0.5 ≦ B < 0.001 μM)”.

Consider `O=c1cc(CN2CCCc3ccccc32)[nH]c2nc(-c3ccccc3)nn12` [1-13], for which the “FABP4 TdF Kd” value is “B (0.5 ≦ B < 0.001 μM)”.

As for `O=C(NCC1(c2ccc(Cl)cc2)CC1)c1c(Cl)cccc1OCc1cc(=O)n2nc(-c3ccccc3)nc2[nH]1` [47-4, 2-chloro-N-((1-(4-chlorophenyl)cyclopropyl)methyl)-6-((7-oxo-2-phenyl-4,7-dihydro-[1,2,4]triazolo[1,5-a]pyrimidin-5-yl)methoxy)benzamide], the Kd was at most 1 nM.

On to `O=C(NCC1(CO)CC1)c1c(Cl)cccc1OCc1cc(=O)n2nc(-c3ccccc3)nc2[nH]1` [47-18, 2-chloro-N-((1-(hydroxymethyl)cyclopropyl)methyl)-6-((7-oxo-2-phenyl-4,7-dihydro-[1,2,4]triazolo[1,5-a]pyrimidin-5-yl)methoxy)benzamide], for which the “FABP4 TdF Kd” value is “B (0.5 ≦ B < 0.001 μM)”.

For `CN(Cc1cc(=O)n2nc(-c3ccccc3)nc2[nH]1)c1cccc(Cl)c1C1CC1` [18-3], the “FABP4 TdF Kd” value is reported as “B (0.5 ≦ B < 0.001 μM)”.

Turning to `CCc1ccc(SCc2cc(=O)n3nc(-c4ccccc4)nc3[nH]2)cc1` [12-1], the “FABP4 TdF Kd” value was “B (0.5 ≦ B < 0.001 μM)”.

For the molecule `O=C(NC1(CO)CCOCC1)C1(OCc2cc(=O)n3nc(-c4ccccc4)nc3[nH]2)CCCCC1` [48-69], the Kd was above 500 nM.

(Values after US8815875B2 (Merck Sharp & Dohme Corp., priority 2008, dated 2014).)
